Measured values published in patent publication US20090181888A1, “Skin Repair Accelerating Therapeutic Agent Containing Ghrelin and Derivatives Thereof or Substance Acting On GHS-R1a as Active Ingredient” (priority 2005, published 2009).
Square brackets hold non-standard residues; d marks the D form. Ends that are not written are not given here. * marks the point of attachment. Octanoyl = CCCCCCCC(=O)*

Key:
Assay type in all cases: cell-based, Wistar rat
cultured fetal skin cell [1] = assay: [3H]-thymidine uptake acceleration in cultured fetal skin cell; details: ghrelin 0.5, 5 and 50 pmol/mL (nM); incubated 24 or 48 hours; versus control without ghrelin; FIG. 3
Procedure: The skin cells of a rat fetus were collected from a Wistar rat on the 17th day of pregnancy, and a dispersion liquid thereof was obtained in the same manner as in Example 2. The dispersed cells were suspended in a MCDB153HAA medium (F-Peptide Co., Ltd., Yamagata, Japan) containing 2% fetal bovine serum, penicillin (100 U/mL), streptomycin (100 μg/mL) and epidermal growth factor EGF (5 ng/mL), and sowed on a polyethyleneimine coated 48-hole multi-well plate in an amount of 5×10^5 cells/well. Ghrelin ([…] (nM))) and [^3H]-thymidine (2 μCi/mL) were added thereto, which was then incubated for 24 hours or 48 hours. A culture solution without containing ghrelin was prepared as a control. After the incubation was over, the cells were collected and radioactivity was measured.
The results are shown in FIG. 3 (black triangle: 50 pmol/mL, black square: 5 pmol/mL, black circle: 0.5 pmol/mL, white circle: control).

[2] = system: fetal skin cell having GHS-R1a; assay: Intracellular calcium-increasing activity in cultured fetal skin cell (Fura-2 calcium imaging); details: single skin cell of rat fetus
Procedure: A Wistar rat on the 17th day of pregnancy underwent laparotomy under anesthesia for fetus extraction. A small piece of skin was collected from the fetus, treated with collagenase in cold Hank's solution, digested with papain, and mechanically separated by pipetting. This gave a dispersion liquid of the fetal skin cells. A single cell was obtained from the dispersion liquid, ghrelin was added thereto, and calcium imaging was performed. For the calcium imaging, a calcium imaging device (IMACS, Hamamatsu Photonics) was used. That is, the ratio of the emission at a wavelength of 510 nm was measured when excitation was performed by 340 nm/380 nm light. Fura-2 was used as a calcium imaging agent. Ghrelin derived from a rat (SEQ ID NO: 3) was used (the same in the following Examples).
In FIG. 2, I, II and III are the points at which a photograph was taken, but the photographs are omitted from the present description. […] Ghrelin and desacylghrelin were added to different cells, respectively.

cultured fetal skin cell [3] = assay: Cell proliferation acceleration (BrdU uptake, Proliferation ELISA) in cultured fetal skin cell; details: ghrelin 0.05 to 500 pmol/mL (nM) or GHRP6 0.05 to 50 pmol/mL (nM); 24 hours; versus control medium; FIG. 4
Procedure: The fetal skin cells were collected from a Wistar rat on the 17th day of pregnancy, and a dispersion liquid thereof was obtained in the same manner as in Example 2. The dispersed cells with ghrelin (0.05 to 500 pmol/mL (nM)) or GHRP6 (0.05 to 50 pmol/mL (nM)) were suspended in a MCDB153HAA medium (F-Peptide Co., Ltd., Yamagata, Japan) containing 2% fetal bovine serum, penicillin (100 U/mL), streptomycin (100 μg/mL) and epidermal growth factor EGF (5 ng/mL), and sowed on a polyethyleneimine coated 96-hole multi-well plate in an amount of 3×10^4 cells/well. A medium without containing ghrelin or GHRP6 was used as a control. 5-bromo-2′-deoxyuridine (BrdU) (10 μM) was added thereto, which was then incubated for 24 hours. After the culture was over, uptake quantity of BrdU into the fetal skin cell was measured using Proliferation ELISA Kit (Roche Diagnostic GmbH. Manheim, Germany) to consider the skin cell growth activity.

| Substance | uptake of [3H]-thymidine into the cell (cultured fetal skin cell [1]) | intracellular calcium in a single fetal skin cell ([2]; ghrelin 1×10^−6 M, day 17 of pregnancy, Fura-2, 340 nm/380 nm ratio, FIG. 2) | uptake of BrdU into the fetal skin cell (cultured fetal skin cell [3]) | calcium response of a single fetal skin cell (FIG. 2 curve) ([2]; dotted-line curve of FIG. 2, concentration not given) |
| --- | --- | --- | --- | --- |
| GSS (n-octanoyl) FLSPEHQKAQQRKESKKPPAKLQPR (GSS(Octanoyl)FLSPEHQKAQQRKESKKPPAKLQPR; listed as Rattus norvegicus) [ghrelin, 28-residue peptide, serine 3 acylated with n-octanoyl, endogenous GHS-R1a ligand] | increased | increase of calcium was observed | significantly increased |  |
| desacylghrelin [reference compound] |  |  |  | responded |
| H[dW]AW[dF]K-NH2 [GHRP6, reference compound] |  |  | significantly increased |  |
